Assay results: patent publication US7901707B2, “Biodegradable biocompatible implant and method of manufacturing same” (priority 2005, dated 2011)
≈ marks a conversion by molar mass, not a printed value.

How the values were obtained:
SKOV3 cells = assay: Cell proliferation assay (MTT), sustained exposure; format: cell-based, human
Protocol: (§1) Briefly, cells were diluted with culture medium to the seeding density (10^5 cells/mL) and suspended in 96-well tissue culture plates (100 μL/well), and preincubated at 37° C. overnight. Cells were then treated continuously with 10 μL of various concentrations of the anticancer agents to obtain a dose-response curve for each agent. For combination assays, cells were also treated continuously with a total of with 10 μL of various concentrations of PTX and CPT. Each drug concentration was as follows: 6.25-200 ng/mL PTX and 1-50 μg/mL CPT.
(§2) After incubation of 24, 48 and 72 h, 10 μL of MTT solution (5 mg/mL of PBS, filtered) was added to each well and the plates were further incubated for 4 h. 100 μL of extraction buffer (20% w/v SDS dissolved at 37° C. in a solution of 50% Dimethylformamide/50% H2O, 2.5% of 80% Acetic acid 2.5% of 1N HCl (ph 4.7)) was added to solubilize the MTT-formazan product. Absorbance at 570 nm was measured with a microplate reader (SPECTRAmax® PLUS384, Molecular Devices, Sunnyvale Calif.—U.S.A.). Dose response curves were plotted as a percentage of the control cell number, which was obtained from the no-drug exposure sample. A semilog scale was used when necessary: IC50 of CPT for SKOV3 and CAOV3.

ovarian cancer cells = assay: MTT assay, combination of PTX and CPT; format: cell-based; settings: 48 hour
Protocol: as §1
as §2, with “sample.” for “sample. A semilog scale was used when necessary: IC50 of CPT for SKOV3 and CAOV3.”

SKOV-3 cells = assay: In-vitro cytotoxicity of implant, implant containing PTX and free PTX (MTT); format: cell-based, human
Protocol: In-vitro cytoxicity of the implant, implant containing PTX and free PTX. The SKOV-3 cells were plated in 6-well plates and cultured in RPMI 1640 supplemented with 1% penicillin/streptomycin solution and 10% fetal bovine serum. The cell line was grown at 37° C. in a humidified incubator equilibrated with 5% CO2. Medium was replaced three times a week and cells were typsinised and subcultured every five days. […] Likewise, PoLi implants of varying sizes were added to the wells. The implants were swelled in 70% ethanol for sterilization purposes prior to incubation with cells. Following a 48 hour incubation period the cell viability was measured using the MTT assay. The MTT dye was added to each well following the specific time period and incubated for 2 hours at 37° C. Cells were then solubilized in 10% SDS. Formazan dye concentrations were then detected using a microplate reader (BioRad) at […] wavelength of 570 nm.

SMILES	decrease in IC50, 24 versus 72 hour time point (SKOV3 cells)	IC50 (ovarian cancer cells; PTX alone)	reduction in cells (SKOV-3 cells; 0.050 μg of free PTX, 48 hours)	cell reduction (SKOV-3 cells; 0.2 μg of free PTX, 48 hours)	IC50 (SKOV-3 cells; Homo sapiens, SK-OV-3, 48 hours of incubation)	CPT IC50 (ovarian cancer cells; CPT alone)
CC(=O)O[C@H]1C(=O)[C@@]2(C)[C@H]([C@H](OC(=O)c3ccccc3)[C@]3(O)C[C@H](OC(=O)[C@H](O)[C@@H](NC(=O)c4ccccc4)c4ccccc4)C(C)=C1C3(C)C)[C@]1(OC(C)=O)CO[C@@H]1C[C@@H]2O [PTX, paclitaxel]	10 fold	> 0.2 µg/mL	64%	73%	0.0347 µg/mL (≈ 0.0406 µM)	
N.N.O=C([O-])C1(C(=O)[O-])CCC1.[Pt+2] [CPT, carboplatin]						35 µg/mL
